Results as given in patent US4444786A, “Carbamate derivatives, insecticidal, miticidal or nematocidal compositions containing the same, and process for preparing the same” (priority 1981, dated 1984).

How the values were obtained:
[1] = system: tobacco cutworm (Spodoptera litura); test: Test Example 1: mortality of third-instar larvae of tobacco cutworm on cabbage, three days; type: in vivo; details: 72 h, 3 days; for mortality at 100 ppm: 100 ppm active ingredient; for mortality at 200 ppm: 200 ppm active ingredient; for mortality at 400 ppm: 400 ppm active ingredient
Procedure: Ten third-instar larvae of tobacco cutworm (Spodoptera litura) were placed on a cabbage (one-month-old seedlings) planted in a pot, and a 50% emulsion of the compound to be tested was diluted to a specified concentration and applied to the leaves of the plant to fully wet them. The test compound of each specified concentration was tested on two pots.

[2] = system: green rice leafhopper (Nephotettix cincticeps); test: Test Example 2: mortality of female adults of green rice leafhopper on paddy rice, three days; type: in vivo; details: 72 h, 3 days; for mortality at 200 ppm: 200 ppm active ingredient; for mortality at 400 ppm: 400 ppm active ingredient; for mortality at 800 ppm: 800 ppm active ingredient
Procedure: An emulsion of specified concentration was prepared from a 50% wettable powder of the compound to be tested and applied to the leaves of paddy rice (one-month-old seedlings) planted in a pot to fully wet the leaves. After air-drying the emulsion, the pot was covered with a net cage, into which 10 female adults of green rice leafhopper (Nephotettix cincticeps) were released. The compound of each specified concentration was tested on two pots.

[3] = system: house fly (Musca domestica); test: Test Example 4: local application to house fly, LD50 by Probit method; type: in vivo; details: topical, 24 hours
Procedure: The compound to be tested was dissolved in a predetermined amount of acetone. The solution was diluted to various concentrations and locally applied to house fly (Musca domestica).

[4] = Test Example 5: acute toxicity by oral administration against male mice; details: mouse, in vivo, seventh day, Litchfield-Wilcoxon method
Procedure: The compound to be tested was evaluated in terms of acute toxicity by oral administration against male mice.

noxious insects = details: known, background; cited from earlier work
warm-blooded animals = details: known, background; cited from earlier work
[5] = system: southern root-knot nematode (Meloidogyne incognita); test: Test Example 3: formation of nodules on tomato roots in soil contaminated with nematode larvae, one month; type: in vivo
Excerpt: Granules containing 10% of the compound to be tested were mixed, in a specified amount, with soil contaminated with larvae of southern root-knot nematode (Meloidogyne incognita), and tomato seedlings were immediately transplanted in the soil. One month later, the roots of the plant were checked for the formation of nodules. Two test areas, 2×2 m^2 each, were used for the compound as applied in each specified amount.

Row | Compound | mortality at 100 ppm [1] | mortality at 200 ppm [1] | mortality at 400 ppm [1] | mortality at 200 ppm [2] | mortality at 400 ppm [2] | mortality at 800 ppm [2] | LD50 [3] | LD50 at 168 h [4] | insecticidal activity (noxious insects) | toxicity to warm-blooded animals (warm-blooded animals) | Degree of Formation of Nodules ([5]; granules (10%) applied at 10 kg/10 a) | Degree of Formation of Nodules ([5]; granules (10%) applied at 25 kg/10 a) | Degree of Formation of Nodules ([5]; granules (10%) applied at 50 kg/10 a)
1 | CCOC(=O)CN(SN(C)C(=O)ON=C(C)SC)C(=O)OCC [Example 12] | 100% | 100% | 100% | 80% | 100% | 100% | 28.7 mg/kg | 200 mg/kg |  |  |  |  | 
2 | CCOC(=O)CCN(Cc1ccccc1)SN(C)C(=O)ON=C(C)SC [Example 8] | 100% | 100% | 100% | 75% | 100% | 100% | 35.2 mg/kg | 250 mg/kg |  |  |  |  | 
3 | CCCCCCCCN(CCC(=O)OCC)SN(C)C(=O)ON=C(C)SC [Example 18] | 60% | 75% | 100% | 75% | 90% | 100% | 35.6 mg/kg | 270 mg/kg |  |  |  |  | 
4 | CCCCCCN(CCC(=O)OCC)SN(C)C(=O)ON=C(C)SC [Example 16] | 70% | 80% | 100% | 75% | 100% | 100% | 32.5 mg/kg | 300 mg/kg |  |  |  |  | 
5 | CNC(=O)ON=C(C)SC [Control*, S-methyl N-[(methylcarbamoyl)oxy]thioacetamidate, reference compound] | 80% |  |  | 90% | 100% | 100% | 6.8 mg/kg | 16 mg/kg | high insecticidal activity | high toxicity to warm-blooded animals |  |  | 
6 | CCCCN(CC(=O)OCC)SN(C)C(=O)ON=C(C)SC [Example 3] | 100% | 100% | 100% | 80% | 100% | 100% | 8.5 mg/kg | 170 mg/kg |  |  |  |  | 
7 | CCOC(=O)CCN(Cc1ccc(Cl)cc1)SN(C)C(=O)ON=C(C)SC [Example 20] | 75% | 80% | 100% | 80% | 100% | 100% | 18.9 mg/kg | 250 mg/kg |  |  |  |  | 
8 | CCOC(=O)CN(SN(C)C(=O)ON=C(C)SC)C(=O)CC [Example 13] | 75% | 90% | 100% | 75% | 100% | 100% | 14.4 mg/kg | 200 mg/kg |  |  |  |  | 
9 | CCOC(=O)CCN(CCC(=O)OCC)SN(C)C(=O)ON=C(C)SC [Example 2, S-methyl N-[{N-methyl-N-(N,N-bis(ethoxycarbonylethyl)aminosulfenyl)carbamoyl}oxy]thioacetamidate] | 75% | 100% | 100% | 60% | 95% | 100% | 23 mg/kg | 300 mg/kg |  |  |  |  | 
10 | CCOC(=O)CCN(CC(C)C)SN(C)C(=O)ON=C(C)SC [Example 6] | 70% | 95% | 100% | 80% | 90% | 100% | 7.6 mg/kg | 170 mg/kg |  |  |  |  | 
11 | CCCCC(CC)COC(=O)CCN(SN(C)C(=O)ON=C(C)SC)C(C)C (stereo not drawn) [Example 17] | 50% | 70% | 100% | 75% | 90% | 100% | 42.4 mg/kg | 300 mg/kg |  |  |  |  | 
12 | CCOC(=O)CCN(SN(C)C(=O)ON=C(C)SC)c1ccc(OC)cc1 [Example 19] | 75% | 80% | 100% | 80% | 100% | 100% | 20.1 mg/kg | 250 mg/kg |  |  |  |  | 
13 | CCCCOC(=O)CCN(SN(C)C(=O)ON=C(C)SC)C(C)C [Example 15] | 75% | 95% | 100% | 80% | 100% | 100% | 21.3 mg/kg | 280 mg/kg |  |  |  |  | 
14 | CCOC(=O)CCN(SN(C)C(=O)ON=C(C)SC)C(C)C [Example 1, S-methyl N-[{N-methyl-N-(N-isopropyl-N-ethoxycarbonylethylaminosulfenyl)carbamoyl}oxy]thioacetamidate] | 85% | 90% | 100% | 60% | 80% | 100% | 16 mg/kg | 150 mg/kg |  |  |  |  | 
15 | CCOC(=O)CCN(SN(C)C(=O)ON=C(C)SC)c1cccc(C)c1 [Example 10] | 60% | 85% | 100% | 90% | 100% | 100% | 29.5 mg/kg | 250 mg/kg |  |  |  |  | 
16 | CCOC(=O)CCN(SN(C)C(=O)ON=C(C)SC)C1CCCCC1 [Example 7] | 95% | 100% | 100% | 65% | 100% | 100% | 18.3 mg/kg | 200 mg/kg |  |  |  |  | 
17 | CCCCN(CCC(=O)OC)SN(C)C(=O)ON=C(C)SC [Example 5] | 100% | 100% | 100% | 95% | 100% | 100% | 5 mg/kg | 150 mg/kg |  |  |  |  | 
18 | CCOC(=O)CCN(SN(C)C(=O)ON=C(C)SC)c1ccc(Cl)cc1 [Example 9] | 50% | 70% | 100% | 70% | 100% | 100% | 14 mg/kg | 250 mg/kg |  |  |  |  | 
19 | CCOC(=O)CN(CC(=O)OCC)SN(C)C(=O)ON=C(C)SC [Example 11] | 45% | 75% | 100% | 60% | 80% | 100% | 47.3 mg/kg | 300 mg/kg |  |  |  |  | 
20 | CCCN(CCC(=O)OCC)SN(C)C(=O)ON=C(C)SC [Example 4] | 100% | 100% | 100% | 95% | 100% | 100% | 11 mg/kg | 150 mg/kg |  |  |  |  | 
21 | Bis(2-chloro-1-methylethyl)ethane |  |  |  |  |  |  |  |  |  |  | 4 (75 to 100%) | 4 (75 to 100%) | 2 (25 to 49%)
22 | CCOC(=O)CN(SN(C)C(=O)ON=C(C)SC)S(=O)(=O)c1ccc(C)cc1 [Example 14] | 60% | 80% | 100% | 80% | 100% | 100% | 33.3 mg/kg | 250 mg/kg |  |  |  |  | 
